Values after ≈ are worked out from the molar mass of the structure shown. Active and inactive are the calls of the source. The calls are words filed in the database; no cut-off is given here.
Key:
[1] = molecular target: Galanin receptor type 2 (Homo sapiens) (UniProt O43603); experiment: Binding affinity to human GAL2 receptor at 1 uM
[2] = molecular target: Melanocortin receptor 4 (Homo sapiens) (UniProt P32245); experiment: Binding affinity to human MC4 receptor at 1 uM
[3] = Drug level in Sprague-Dawley rat blood at 2 mg/kg, po after 0.8 hrs; assay type: ADME, organism-based; parameters: dose 2 mg/kg, route oral; details: read-out: Drug uptake
[4] = tested on: Rattus norvegicus; experiment: Antihyperalgesic activity in complete Freund's adjuvant rat model of inflammatory pain assessed as reversal of hyperalgesia at 1 mg/kg, po administered as single dose in presence of 15 mg/kg, ip cannabinoid CB2 receptor antagonsit AM630; assay type: functional, organism-based
[5] = tested on: Rattus norvegicus; experiment: Induction of hypothermia in rat at 130 mg/kg, po after 1 to 5 hrs; assay type: organism-based; parameters: dose 130 mg/kg, route oral; details: in vivo
[6] = Ratio of drug level in brain to blood in rat 130 mg/kg, po after 1 hr; assay type: ADME, organism-based; parameters: dose 130 mg/kg, route oral
[7] = molecular target: Cannabinoid receptor 1 (Homo sapiens, UniProt P21554); experiment: Agonist activity at human recombinant cannabinoid CB1 receptor expressed in MMY23 Saccharomyces cerevisiae assessed as degradation of FDGlu to fluorescein after 24 hrs by spectrofluorimetry relative to HU210; assay type: functional
[8] = molecular target: Cytochrome P450 2C19 (Homo sapiens, UniProt P33261); experiment: Inhibition of CYP2C19; assay type: ADME
[9] = molecular target: Cytochrome P450 2D6 (Homo sapiens, UniProt P10635); experiment: Inhibition of CYP2D6; assay type: ADME
[10] = Solubility in simulated intestinal fluid at pH 5; assay type: physicochemical
[11] = Efflux ratio of apparent permeability […] side of MDR1-expressing MDCK2 cells after 60 mins by liquid scintillation counting; assay type: ADME, cell-based, Canis lupus familiaris; details: dog, mdck-ii, 1 h
[12] = molecular target: 5-hydroxytryptamine receptor 5A (Homo sapiens) (UniProt P47898); experiment: Binding affinity to 5HT5A receptor at 1 uM
[13] = molecular target: Adenosine receptor A2a (Homo sapiens) (UniProt P29274); experiment: Binding affinity to human adenosine A2A receptor at 1 uM
[14] = Binding affinity to adrenergic alpha1 receptor at 1 uM
[15] = molecular target: Beta-1 adrenergic receptor (Homo sapiens) (UniProt P08588); experiment: Binding affinity to human beta-1 adrenergic receptor at 1 uM
[16] = Ratio of drug level in brain to blood in rat 130 mg/kg, po after 3 hrs; assay type: ADME, organism-based; parameters: dose 130 mg/kg, route oral
[17] = species: Homo sapiens; experiment: Selectivity ratio of EC50 for human recombinant cannabinoid CB1 receptor to EC50 for human recombinant cannabinoid CB2 receptor

Chain of 5-hydroxytryptamine receptor 5A (Homo sapiens) (P47898 whole entry): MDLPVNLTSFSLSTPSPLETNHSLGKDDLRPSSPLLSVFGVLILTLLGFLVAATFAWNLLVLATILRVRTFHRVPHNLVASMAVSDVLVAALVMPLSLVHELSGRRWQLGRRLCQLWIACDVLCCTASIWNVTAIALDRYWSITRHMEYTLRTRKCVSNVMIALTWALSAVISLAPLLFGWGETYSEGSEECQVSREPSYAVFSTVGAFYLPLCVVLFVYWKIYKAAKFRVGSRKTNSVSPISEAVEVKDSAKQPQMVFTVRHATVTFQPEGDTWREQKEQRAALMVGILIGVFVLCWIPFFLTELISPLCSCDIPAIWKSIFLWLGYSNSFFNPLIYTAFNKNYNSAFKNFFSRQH
Chain of Cytochrome P450 2C19 (P33261 whole entry): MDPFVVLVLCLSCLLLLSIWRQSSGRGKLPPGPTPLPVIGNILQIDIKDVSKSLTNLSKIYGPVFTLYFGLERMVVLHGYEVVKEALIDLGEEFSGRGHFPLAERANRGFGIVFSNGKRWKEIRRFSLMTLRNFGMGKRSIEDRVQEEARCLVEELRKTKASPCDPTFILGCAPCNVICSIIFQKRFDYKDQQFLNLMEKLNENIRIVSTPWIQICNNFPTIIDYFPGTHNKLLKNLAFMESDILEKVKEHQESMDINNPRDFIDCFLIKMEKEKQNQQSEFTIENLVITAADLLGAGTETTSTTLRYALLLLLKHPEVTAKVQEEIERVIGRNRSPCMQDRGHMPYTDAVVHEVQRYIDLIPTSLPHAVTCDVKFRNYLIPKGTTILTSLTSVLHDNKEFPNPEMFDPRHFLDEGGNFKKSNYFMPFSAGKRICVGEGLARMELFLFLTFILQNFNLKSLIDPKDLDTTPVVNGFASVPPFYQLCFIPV
Chain of Galanin receptor type 2 (Homo sapiens) (O43603 whole entry): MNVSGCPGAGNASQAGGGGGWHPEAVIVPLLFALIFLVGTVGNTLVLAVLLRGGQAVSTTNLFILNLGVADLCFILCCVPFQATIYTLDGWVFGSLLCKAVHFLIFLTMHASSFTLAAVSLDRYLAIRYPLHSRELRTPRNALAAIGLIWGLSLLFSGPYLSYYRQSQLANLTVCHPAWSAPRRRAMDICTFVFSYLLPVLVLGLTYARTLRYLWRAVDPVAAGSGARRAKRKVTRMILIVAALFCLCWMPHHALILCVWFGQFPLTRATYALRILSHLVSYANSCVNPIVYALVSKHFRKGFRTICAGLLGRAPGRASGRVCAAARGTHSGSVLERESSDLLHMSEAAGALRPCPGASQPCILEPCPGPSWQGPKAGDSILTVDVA
Chain of Adenosine receptor A2a (Homo sapiens) (P29274 whole entry): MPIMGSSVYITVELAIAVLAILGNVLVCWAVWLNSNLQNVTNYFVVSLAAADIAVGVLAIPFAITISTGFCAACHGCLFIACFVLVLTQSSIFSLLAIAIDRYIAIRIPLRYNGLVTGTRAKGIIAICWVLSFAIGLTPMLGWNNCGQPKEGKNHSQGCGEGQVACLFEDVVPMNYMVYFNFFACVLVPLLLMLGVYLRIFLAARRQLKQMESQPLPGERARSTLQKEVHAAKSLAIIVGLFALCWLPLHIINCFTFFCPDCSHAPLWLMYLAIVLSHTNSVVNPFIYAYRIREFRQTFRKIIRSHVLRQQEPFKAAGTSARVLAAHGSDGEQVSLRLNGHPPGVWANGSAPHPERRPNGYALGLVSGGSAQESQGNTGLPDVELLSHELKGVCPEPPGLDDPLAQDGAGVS
Chain of Melanocortin receptor 4 (Homo sapiens) (P32245 whole entry): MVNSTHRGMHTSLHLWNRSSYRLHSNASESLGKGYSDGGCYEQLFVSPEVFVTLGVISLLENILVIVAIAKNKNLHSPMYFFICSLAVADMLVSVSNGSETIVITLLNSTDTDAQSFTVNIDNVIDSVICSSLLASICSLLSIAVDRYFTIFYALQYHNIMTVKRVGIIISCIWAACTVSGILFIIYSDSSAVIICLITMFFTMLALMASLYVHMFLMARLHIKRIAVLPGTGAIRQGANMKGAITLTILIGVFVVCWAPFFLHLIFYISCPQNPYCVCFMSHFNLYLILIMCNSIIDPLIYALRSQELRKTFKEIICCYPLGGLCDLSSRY
Chain of Cannabinoid receptor 1 (P21554 whole entry): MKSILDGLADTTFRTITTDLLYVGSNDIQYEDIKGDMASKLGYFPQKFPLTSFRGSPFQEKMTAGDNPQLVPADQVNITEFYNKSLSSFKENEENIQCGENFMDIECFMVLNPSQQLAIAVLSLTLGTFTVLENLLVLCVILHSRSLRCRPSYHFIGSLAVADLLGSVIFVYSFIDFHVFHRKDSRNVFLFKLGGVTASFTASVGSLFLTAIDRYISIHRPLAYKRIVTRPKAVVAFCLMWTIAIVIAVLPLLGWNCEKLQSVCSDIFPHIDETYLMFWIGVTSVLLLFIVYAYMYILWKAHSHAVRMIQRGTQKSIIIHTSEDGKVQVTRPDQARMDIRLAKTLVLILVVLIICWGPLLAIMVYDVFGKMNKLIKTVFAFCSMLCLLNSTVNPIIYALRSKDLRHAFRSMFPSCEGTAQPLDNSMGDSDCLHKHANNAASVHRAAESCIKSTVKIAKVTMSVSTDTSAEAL
Chain of Beta-1 adrenergic receptor (Homo sapiens) (P08588 whole entry, looked up): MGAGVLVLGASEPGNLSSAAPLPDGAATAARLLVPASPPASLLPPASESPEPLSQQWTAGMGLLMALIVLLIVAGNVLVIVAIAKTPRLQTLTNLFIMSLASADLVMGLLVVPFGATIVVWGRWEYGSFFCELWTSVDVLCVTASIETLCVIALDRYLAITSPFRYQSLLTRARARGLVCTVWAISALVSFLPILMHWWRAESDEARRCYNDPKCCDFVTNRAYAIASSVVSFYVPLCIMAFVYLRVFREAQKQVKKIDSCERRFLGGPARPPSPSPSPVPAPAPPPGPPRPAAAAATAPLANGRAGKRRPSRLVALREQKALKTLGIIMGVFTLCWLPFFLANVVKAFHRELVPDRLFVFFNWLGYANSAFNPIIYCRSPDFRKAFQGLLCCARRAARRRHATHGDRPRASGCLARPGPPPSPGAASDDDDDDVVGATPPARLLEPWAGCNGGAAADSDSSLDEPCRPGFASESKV
Chain of Cytochrome P450 2D6 (P10635 whole entry): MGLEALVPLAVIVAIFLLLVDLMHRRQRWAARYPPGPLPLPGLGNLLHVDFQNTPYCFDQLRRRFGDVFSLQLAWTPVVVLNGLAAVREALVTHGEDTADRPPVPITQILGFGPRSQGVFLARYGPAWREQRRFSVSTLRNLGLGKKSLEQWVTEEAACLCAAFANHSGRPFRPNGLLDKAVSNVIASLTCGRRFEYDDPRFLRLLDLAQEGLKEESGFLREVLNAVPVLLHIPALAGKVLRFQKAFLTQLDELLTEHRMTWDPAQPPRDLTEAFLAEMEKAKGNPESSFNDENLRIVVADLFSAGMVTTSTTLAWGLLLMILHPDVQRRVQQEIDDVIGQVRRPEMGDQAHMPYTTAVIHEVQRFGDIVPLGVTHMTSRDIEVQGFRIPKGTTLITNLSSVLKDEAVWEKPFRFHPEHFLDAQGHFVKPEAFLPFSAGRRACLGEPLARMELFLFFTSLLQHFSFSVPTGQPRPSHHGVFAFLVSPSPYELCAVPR

Cn1ccc2c(Nc3cccc(Cl)c3)ncc(C(=O)N3CCOCC3)c21
Activity [1]: < 10%
Activity [2]: < 10%
concentration at 0.8 h [3]: 1100 nM
Activity [4]: Active
Activity [5]: Non-toxic
Kp at 1 h [6]: 1
Efficacy [7]: 88%
IC50 [8]: 41 µM
IC50 [9]: 21 µM
solubility [10]: 590 µg/mL (≈ 1590 µM)
Ratio [11]: 2.9
Activity [12]: 15%
Activity [13]: < 10%
Activity [14]: < 10%
Activity [15]: < 10%
Kp at 3 h [16]: 1
Ratio EC50 [17]: 1200
